Experimental data taken from patent US20130130909A1, “DCMU RESISTANCE IN NANNOCHLOROPSIS” (priority 2011, published 2013).

Assays:
[1] = tested on: algae of genus Chlorella; assay: DCMU and fluorescence under low actinic light, Chlorella culture; format: cell-based; conditions: 100 nanomolar DCMU
Description: (§1) FIG. 3 (“FIG. 3”) is a graph of relative fluorescence rise versus percentage contaminating species for the algae of genus Chlorella as referred to in FIG. 2. In FIG. 3, the impact of the actinic light is seen in the relative fluorescence rise to the maximum fluorescence yield observed during an intense saturating pulse, during the low level actinic light treatment for the Chlorella culture, the same rise being absent from the Nannochloropsis culture.

[2] = tested on: algae of genus Nannochloropsis ("W2"); assay: DCMU incubation and fluorescence under low actinic light, Nannochloropsis culture; format: cell-based; conditions: 100 nanomolar DCMU
Method: Typically, DCMU is instantaneously efficacious at concentrations in the 0.1 micromolar to 50 micromolar range. The inventors herein discovered that algae of the genus Nannochloropsis, however, generally requires higher concentrations and relatively lengthy incubation periods for the effects of DCMU to take place.
as §1

[3] = tested on: weed algae of genus Tetraselmis; assay: DCMU administered to 1 million liter open pond raceway systems with Nannochloropsis cultures invaded by Tetraselmis; format: in vivo
Method: The inventors utilized commercially available DCMU at a field research site to kill the persistent weed algae of genus Tetraselmis. DCMU was administered to six 1 million liter open pond raceway systems wherein Nannochloropis cultures were cultivated at a density of approximately 270 milligrams per liter. Tetraselmis invasion in the ponds is shown in FIG. 6, and is quantified in Table 2 as a percentage of mass. The higher the percentage of mass, the higher the Tetraselmis invasion. The six 1 million liter open pond raceway systems are denoted in FIG. 6, Table 1, and Table 2 as Pond A1, Pond A2, Pond A3, Pond B1, Pond B2, and Pond B3.
Consequently, as little as 100 grams, and as much as 400 grams, were needed. The commercial DCMU source was 90% DCMU by mass, so 90 grams and 360 grams effective amounts of DCMU (M.W. 233 amu) in 1 million liters of volume converts to DCMU concentrations of 0.38 micromolar and 1.55 micromolar, respectively.
Note “D” denotes the dumping of the contents of the pond.

[4] = corrected for 90% DCMU by mass, 1 million liters

CN(C)C(=O)Nc1ccc(Cl)c(Cl)c1 [DCMU, 3-(3,4-dichlorophenyl)-1,1-dimethylurea]
effect of actinic light on PSII reaction centers in presence of DCMU, Chlorella ([1]; 50 micromolar quanta m^-2 s^-1 actinic light, FIG. 2): completely closes PSII reaction centers | herbicidal effect on Chlorella ([1]; Chlorella isolated from an invaded pond): strong herbicidal effect | resistance of Nannochloropsis to DCMU ([2]; 24 hour incubation period): completely resistant | effect of actinic light on PSII reaction centers in presence of DCMU, Nannochloropsis ([2]; 50 micromolar quanta m^-2 s^-1 actinic light, FIG. 1): barely has an effect | effective DCMU concentration, lowest ([3]; 90 grams in 1 million liters): 0.38 µM | effective DCMU concentration, highest ([3]; 360 grams in 1 million liters): 1.55 µM | effective amount of DCMU, highest [3, 4]: 360 grams | effective amount of DCMU, lowest [3, 4]: 90 grams
